According to patent US20230414607A1, “METHODS OF TREATMENT” (BOW RIVER LLC, priority 2017, published 2023):
Where two headings read alike, the source gives them in different places. Marks after values point to notes of the source that are not given here.

Columns and labels:
[1] = Plasma ranolazine pharmacokinetics before, during and after posaconazole in normal-weight and obese subjects; format: in vivo; conditions: human, oral, 500 mg, Day 1, obese subjects, ranolazine 500 mg ER
[2] = as above; format: in vivo, human; conditions: for Time the interaction persisted above an AUC GMR of 1.5: after cessation of posaconazole administration; for Time the interaction persisted above a Cmax GMR of 1.5: after cessation of posaconazole
Protocol: Procedures. […] On study day 2, subjects received posaconazole (300 mg delayed-release tablet twice a day), and on the mornings of days 3-15, subjects received posaconazole (300 mg delayed-release tablet daily). Because posaconazole is to be taken with food,^6 subjects were fed a continental breakfast in the clinical research unit after receiving posaconazole and before discharge from the unit. […] Samples were centrifuged, and the plasma was separated and frozen at −70° C. until the time of assay of plasma posaconazole concentrations. […] Plasma samples were extracted by methyl tertiary butyl ether, centrifuged, and the upper layer was transferred to plastic injection vials with MeOH/water (50:50). An aliquot of the sample was then injected onto a high-pressure liquid chromatography with tandem mass spectrometry triple quadrupole mass spectrometer (Sciex API-5500). The analytical column was a Unison CK-218, 3 μm particle size HPLC column (50×2 mm) from Imtakt USA (Portland, OR). […] Pharmacokinetic and Statistical Methods. […] This was used to calculate the half-life (t1/2). The area under the plasma concentration curve from time 0 until the last nonzero point was determined by the linear trapezoidal method. To this was added the residual area, calculated as the final nonzero concentration divided by β, yielding the total area under the plasma concentration curve extrapolated to infinity (AUC). Also tabulated was the observed maximum plasma concentration (Cmax). Variables were aggregated as arithmetic mean and SD.

[3] = human, plasma, oral, 500 mg, Day 1 (before posaconazole), normal-weight subjects, ranolazine 500 mg ER, mean ± SD
[4] = human, plasma, oral, 500 mg, Day 1 (before posaconazole), obese subjects, ranolazine 500 mg ER, mean ± SD
[5] = human, plasma, oral, 500 mg, Day 18 (3 days after last posaconazole dose), normal-weight subjects, ranolazine 500 mg ER, mean ± SD
[6] = human, plasma, oral, 500 mg, Day 18 (3 days after last posaconazole dose), obese subjects, ranolazine 500 mg ER, mean ± SD
[7] = human, plasma, oral, 500 mg, Day 22 (7 days after last posaconazole dose), normal-weight subjects, ranolazine 500 mg ER, mean ± SD
[8] = human, plasma, oral, 500 mg, Day 22 (7 days after last posaconazole dose), obese subjects, ranolazine 500 mg ER, mean ± SD
[9] = human, plasma, oral, 500 mg, Day 25 (10 days after last posaconazole dose), normal-weight subjects, ranolazine 500 mg ER, mean ± SD
[10] = human, plasma, oral, 500 mg, Day 25 (10 days after last posaconazole dose), obese subjects, ranolazine 500 mg ER, mean ± SD
[11] = human, plasma, oral, 500 mg, Day 29 (14 days after last posaconazole dose), normal-weight subjects, ranolazine 500 mg ER, mean ± SD
[12] = human, plasma, oral, 500 mg, Day 29 (14 days after last posaconazole dose), obese subjects, ranolazine 500 mg ER, mean ± SD
[13] = human, plasma, oral, Day 15 (last day of posaconazole 300 mg daily), normal-weight subjects, ranolazine 500 mg ER, mean ± SD
[14] = human, plasma, oral, Day 15 (last day of posaconazole 300 mg daily), obese subjects, ranolazine 500 mg ER, mean ± SD

In the case of `COc1ccccc1OCC(O)CN1CCN(CC(=O)Nc2c(C)cccc2C)CC1` (stereo not shown) [ranolazine], the Cmax ([1]; read-out: Geometric mean Cmax) is reported as 559 ± 271 ng/mL, the AUC ([1]; Geometric mean AUC for ranolazine) is reported as 6960 ng·h/mL and the T1/2 ([2]; Day 1 (before posaconazole), normal-weight subjects, ranolazine 500 mg ER, mean ± SD) is reported as 4.98 ± 1.50^a h. For the same compound, the “Time the interaction persisted above an AUC GMR of 1.5” value ([2]; normal-weight subjects) was “at least 7 days”, the “Time the interaction persisted above an AUC GMR of 1.5” value ([2]; obese subjects) was ≥ 10 days and the “Time the interaction persisted above a Cmax GMR of 1.5” value ([2]; normal-weight subjects) was 7 days. For the same compound, the “Time the interaction persisted above a Cmax GMR of 1.5” value ([2]; obese subjects) was 10 days, the “Time the lower bound of the AUC GMR 90% CI remained above 1.0” value ([2]; both normal-weight and obese subjects) was 7 days and the AUC(0-inf) [2, 3] was 7080 ± 3600 ng·h/mL. The half-life [2, 3] was 4.99 ± 1.5 h, the Cmax ([2]; human, plasma, oral, 500 mg, Day 1 (before posaconazole), normal-weight subjects, ranolazine 500 mg extended-release tablet, mean ± SD, read-out: Cmax) was 665 ± 318 ng/mL and the AUC(0-inf) [2, 4] was 8130 ± 4840 ng·h/mL. It also gave a half-life [2, 4] of 6.02 ± 1.75 h, a Cmax ([2]; human, plasma, oral, 500 mg, Day 1 (before posaconazole), obese subjects, ranolazine 500 mg extended-release tablet, mean ± SD, read-out: Cmax) of 559 ± 271 ng/mL and a Cmax ([2]; human, plasma, oral, 500 mg, Day 1, normal-weight subjects, ranolazine 500 mg ER, read-out: Geometric mean Cmax) of 665 ± 318 ng/mL. For the same compound, the AUC(0-inf) [2, 5] was 17300 ± 10300 ng·h/mL, the half-life [2, 5] was 5.73 ± 1.53 h and the Cmax ([2]; human, plasma, oral, 500 mg, Day 18 (3 days after last posaconazole dose), normal-weight subjects, ranolazine 500 mg ER, mean ± SD, read-out: Cmax) was 1190 ± 469 ng/mL. It also gave an AUC(0-inf) [2, 6] of 19300 ± 14200 ng·h/mL, a half-life [2, 6] of 7.93 ± 2.98 h and a Cmax ([2]; human, plasma, oral, 500 mg, Day 18 (3 days after last posaconazole dose), obese subjects, ranolazine 500 mg ER, mean ± SD, read-out: Cmax) of 1100 ± 502 ng/mL. For the same compound, the AUC(0-inf) [2, 7] was 13400 ± 6250 ng·h/mL, the half-life [2, 7] was 6.47 ± 3.14 h and the Cmax ([2]; human, plasma, oral, 500 mg, Day 22 (7 days after last posaconazole dose), normal-weight subjects, ranolazine 500 mg ER, mean ± SD, read-out: Cmax) was 974 ± 400 ng/mL. The AUC(0-inf) [2, 8] was 15900 ± 11800 ng·h/mL, the half-life [2, 8] was 6.09 ± 2.1 h and the Cmax ([2]; human, plasma, oral, 500 mg, Day 22 (7 days after last posaconazole dose), obese subjects, ranolazine 500 mg ER, mean ± SD, read-out: Cmax) was 1060 ± 508 ng/mL. For the same compound, the AUC(0-inf) [2, 9] was 9380 ± 4590 ng·h/mL, the half-life [2, 9] was 5.05 ± 1.82 h and the Cmax ([2]; human, plasma, oral, 500 mg, Day 25 (10 days after last posaconazole dose), normal-weight subjects, ranolazine 500 mg ER, mean ± SD, read-out: Cmax) was 928 ± 482 ng/mL. It also gave an AUC(0-inf) [2, 10] of 13800 ± 10600 ng·h/mL, a half-life [2, 10] of 6.07 ± 2.1 h and a Cmax ([2]; human, plasma, oral, 500 mg, Day 25 (10 days after last posaconazole dose), obese subjects, ranolazine 500 mg ER, mean ± SD, read-out: Cmax) of 976 ± 487 ng/mL. For the same compound, the AUC(0-inf) [2, 11] was 8570 ± 3800 ng·h/mL, the half-life [2, 11] was 4.45 ± 1.38 h and the Cmax ([2]; human, plasma, oral, 500 mg, Day 29 (14 days after last posaconazole dose), normal-weight subjects, ranolazine 500 mg ER, mean ± SD, read-out: Cmax) was 751 ± 276 ng/mL. It also gave an AUC(0-inf) [2, 12] of 10200 ± 7940 ng·h/mL, a half-life [2, 12] of 6.38 ± 3.05 h and a Cmax ([2]; human, plasma, oral, 500 mg, Day 29 (14 days after last posaconazole dose), obese subjects, ranolazine 500 mg ER, mean ± SD, read-out: Cmax) of 719 ± 333 ng/mL. It also gave an AUC ([2]; human, plasma, oral, 500 mg, Geometric mean AUC for ranolazine, Day 1, normal-weight subjects, ranolazine 500 mg ER) of 6450 ng·h/mL, an AUC(0-inf) [2, 13] of 27500 ± 14900 ng·h/mL and a half-life [2, 13] of 9.54 ± 4.3 h. It also gave a Cmax ([2]; human, plasma, oral, Day 15 (last day of posaconazole 300 mg daily), normal-weight subjects, ranolazine 500 mg ER, mean ± SD, read-out: Cmax) of 1430 ± 666 ng/mL, an AUC(0-inf) [2, 14] of 25800 ± 21600 ng·h/mL and a half-life [2, 14] of 8.78 ± 5.58 h. The Cmax ([2]; human, plasma, oral, Day 15 (last day of posaconazole 300 mg daily), obese subjects, ranolazine 500 mg ER, mean ± SD, read-out: Cmax) was 1180 ± 512 ng/mL.
